Measurements published in ChEMBL document CHEMBL1121862, “Synthesis of 3-hydroxycyclophosphamide and studies related to its possible role in the metabolism of cyclophosphamide” (1981).

Tests used:
Mus musculus [1] = species: Mus musculus; experiment: animal or person; settings: ip
Mus musculus [2] = species: Mus musculus; experiment: animal or person; settings: ip; remark: listed apart in the source

O=P1(N(CCCl)CCCl)NCCCO1 (configuration not stated) [CYCLOPHOSPHAMIDE ANHYDROUS]
ILS at 100 mg/kg (Mus musculus [1]): > 100% | ILS at 200 mg/kg (Mus musculus [2]): > 150%
